Data reported in the supplement of paper PMC10307832.

Legend:
Experiment in all cases: relative viability (nuclei count vs DMSO), 5 days (fraction); higher = more cells survive
[1] = compound: OCc1c[nH]c2ccccc12 [Indole-3-carbinol] + CC(=O)Nc1cccc(-n2c(=O)n(C3CC3)c(=O)c3c(Nc4ccc(I)cc4F)n(C)c(=O)c(C)c32)c1 [Trametinib] (partner 0.02 µM)
Procedure, shortened: (§1)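 One day after seeding in 1536-well plates, lung cancer cell lines were dosed by pin tool. Dosing was either single-drug or a fixed anchor-drug dose plus five library-drug doses (not always all listed) in √10 steps. After 5 days, nuclei were stained in one fix-and-stain step and counted on 4× images, and relative viability is the nuclei count of treated wells over that of vehicle wells, given as the median of duplicate plates.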

[2] = compound: OCc1c[nH]c2ccccc12 [Indole-3-carbinol] + CC1(C)CCC(c2ccc(Cl)cc2)=C(CN2CCN(c3ccc(C(=O)NS(=O)(=O)c4ccc(N[C@H](CCN5CCOCC5)CSc5ccccc5)c(S(=O)(=O)C(F)(F)F)c4)cc3)CC2)C1 [Navitoclax] (partner 0.5 µM)
Procedure, shortened: as §1

[3] = compound: OCc1c[nH]c2ccccc12 [Indole-3-carbinol] + CCNC(=O)c1noc(-c2cc(C(C)C)c(O)cc2O)c1-c1ccc(CN2CCOCC2)cc1 [Luminespib] (partner 0.01 µM)
Procedure, shortened: as §1

[4] = compound: OCc1c[nH]c2ccccc12 [Indole-3-carbinol] + NC(=O)Nc1cc(-c2cccc(F)c2)sc1C(=O)N[C@H]1CCCNC1 [AZD7762] (partner 0.2 µM)
Procedure, shortened: as §1

[5] = compound: OCc1c[nH]c2ccccc12 [Indole-3-carbinol] + Nc1ncn([C@H]2C[C@H](O)[C@@H](CO)O2)c(=O)n1 [Decitabine] (partner 2 µM)
Procedure, shortened: as §1

Row | Cell Line | relative viability ([1]; first compound 0.253 µM) | relative viability ([1]; first compound 0.8 µM) | relative viability ([1]; first compound 2.53 µM) | relative viability ([1]; first compound 8 µM) | relative viability ([2]; first compound 0.253 µM) | relative viability ([2]; first compound 0.8 µM) | relative viability ([2]; first compound 2.53 µM) | relative viability ([2]; first compound 8 µM) | relative viability ([3]; first compound 0.253 µM) | relative viability ([3]; first compound 0.8 µM) | relative viability ([3]; first compound 2.53 µM) | relative viability ([3]; first compound 8 µM) | relative viability ([4]; first compound 0.253 µM) | relative viability ([4]; first compound 0.8 µM) | relative viability ([4]; first compound 2.53 µM) | relative viability ([4]; first compound 8 µM) | relative viability ([5]; first compound 0.253 µM) | relative viability ([5]; first compound 0.8 µM) | relative viability ([5]; first compound 2.53 µM) | relative viability ([5]; first compound 8 µM)
1 | PC-3 [JPC-3] | 0.749 | 0.719 | 0.678 | 0.667 | 0.8 | 0.804 | 0.823 | 0.783 | 0.644 | 0.796 | 0.722 | 0.658 | 0.723 | 0.925 | 0.765 | 0.91 | 0.868 | 0.832 | 0.91 | 0.809
2 | PC-14 | 0.7 | 0.729 | 0.818 | 0.711 | 1.01 | 1.1 | 1.07 | 0.961 | 0.218 | 0.143 | 0.24 | 0.191 | 0.342 | 0.315 | 0.331 | 0.327 | 0.201 | 0.196 | 0.276 | 0.23
3 | RERF-LC-KJ | 0.812 | 0.904 | 0.943 | 0.825 | 1.12 | 0.907 | 0.971 | 1.04 | 1.25 | 1.18 | 1.23 | 1.11 | 1.07 | 1.01 | 0.962 | 0.885 | 0.741 | 0.69 | 0.716 | 0.62
